Data reported in patent US20060083680A1, “Diphenyl ether derivatives and their use for imaging serotonin transporters” (The Trustees of the University of Pennsylvania, priority 2004, published 2006).
Several values for one entry are separate records, joined by “and”; a condition that tells them apart may be missing. Equal values may be shown once. Entries after “also recorded” stand apart in the source; their conditions may differ.

Tests used:
[1] = Biodistribution in rats after iv injection (organs); format: in vivo; settings: for Biodistribution Blood / Biodistribution Brain / Biodistribution Heart / Biodistribution Kidney / Biodistribution Liver / Biodistribution Lung / Biodistribution Muscle / Biodistribution Skin / Biodistribution Spleen / Biodistribution Thyroid: iv
Method: Biodistribution in rats: Three rats per group were used for each biodistribution study. While under ether anesthesia, 0.2 mL of a saline solution containing 10 μCi of radioactive tracer was injected into the femoral vein. The rats were sacrificed at the time indicated by cardiac excision while under ether anesthesia. Organs of interest were removed and weighed, and the radioactivity was counted. The percent dose per organ was calculated by a comparison of the tissue counts to counts of 1% of the initial dose (100 times diluted aliquots of the injected material) measured at the same time.

serotonin transporters = target: T1, serotonin transporters (Rattus norvegicus, UniProt P31652); test: Regional brain distribution and specific binding ratio in rats; format: in vivo; settings: for Ratio of (Region-Cerebellum)/Cerebellum, CX / Ratio of (Region-Cerebellum)/Cerebellum, HP / Ratio of (Region-Cerebellum)/Cerebellum, HY / Ratio of (Region-Cerebellum)/Cerebellum, ST / Regional brain distribution CB (cerebellum) / Regional brain distribution CX (cortex) / Regional brain distribution HP (hippocampus) / Regional brain distribution HY (hypothalamus) / Regional brain distribution ST (striatum): iv
T1 construct: from tissue; host or cells: rat brain in vivo (hypothalamus, cortex, striatum, hippocampus, cerebellum); ex vivo brain sections
T1 sequence (P31652 whole entry): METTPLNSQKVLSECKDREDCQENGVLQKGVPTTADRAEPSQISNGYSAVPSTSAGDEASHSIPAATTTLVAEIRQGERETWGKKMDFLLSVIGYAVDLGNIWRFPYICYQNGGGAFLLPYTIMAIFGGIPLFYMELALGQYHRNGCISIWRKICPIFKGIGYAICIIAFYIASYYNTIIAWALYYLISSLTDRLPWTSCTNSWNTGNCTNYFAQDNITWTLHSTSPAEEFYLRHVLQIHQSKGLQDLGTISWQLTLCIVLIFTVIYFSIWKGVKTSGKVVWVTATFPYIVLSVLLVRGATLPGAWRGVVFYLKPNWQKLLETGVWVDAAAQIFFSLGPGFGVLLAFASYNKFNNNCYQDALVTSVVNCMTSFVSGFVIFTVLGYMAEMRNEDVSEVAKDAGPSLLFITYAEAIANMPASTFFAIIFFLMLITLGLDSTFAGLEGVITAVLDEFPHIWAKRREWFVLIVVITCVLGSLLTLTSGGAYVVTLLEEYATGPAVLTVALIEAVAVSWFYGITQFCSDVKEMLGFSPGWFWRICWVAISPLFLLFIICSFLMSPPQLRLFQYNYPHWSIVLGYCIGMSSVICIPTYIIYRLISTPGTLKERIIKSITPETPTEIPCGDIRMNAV
Method: Regional brain distribution in rats was measured after an i.v. injection of the radioactive tracer. Samples from different brain regions: cortex (frontal plus occipital), striatum, hippocampus, cerebellum and hypothalamus were dissected, weighed and counted. The percentage dose/g of each sample was calculated by comparing sample counts with the counts of the diluted initial dose described above. The specific binding ratio in each region was obtained by dividing the % dose/gram values between region by that in the cerebellum ([region-cerebellum/cerebellum]). The cerebellum region containing little or no serotonin transporters was used as the background region.

SERT binding sites = target: T2, SERT binding sites (Rattus norvegicus, UniProt P31652); test: Ex vivo autoradiography of rat brain sections; format: in vivo, rats; settings: rats, ex vivo after i.v. injection
T2 construct: from tissue; host or cells: rat brain in vivo (hypothalamus, cortex, striatum, hippocampus, cerebellum); ex vivo brain sections
T2 sequence (P31652 whole entry): as above

[2] = Stability of the radioactive material; settings: refrigerator

## CN(C)Cc1ccccc1Oc1ccc([125I])cc1N [[^125I]4, [^125I][^123I]2-(2-(Dimethylaminomethyl)phenoxy)-5-iodophenylamine]
[1]; 2 min post-injection
  brain uptake: 1.77 % dose and 1.77±0.07 % dose
[1]; 2 min
  Biodistribution Blood: 5.75 ± 0.54 % dose/organ
  Biodistribution Brain: 1.77 ± 0.07 % dose/organ
  Biodistribution Heart: 1.51 ± 0.13 % dose/organ
  Biodistribution Kidney: 4.27 ± 0.90 % dose/organ
  Biodistribution Liver: 5.71 ± 0.88 % dose/organ
  Biodistribution Lung: 17.2 ± 2.32 % dose/organ
  Biodistribution Muscle: 25.9 ± 4.82 % dose/organ
  Biodistribution Skin: 4.45 ± 0.52 % dose/organ
  Biodistribution Spleen: 0.44 ± 0.08 % dose/organ
  Biodistribution Thyroid: 0.10 ± 0.02 % dose/organ
[1]; 30 min
  Biodistribution Blood: 4.56 ± 0.20 % dose/organ
  Biodistribution Brain: 2.12 ± 0.15 % dose/organ
  Biodistribution Heart: 0.32 ± 0.04 % dose/organ
  Biodistribution Kidney: 2.67 ± 0.48 % dose/organ
  Biodistribution Liver: 7.10 ± 0.66 % dose/organ
  Biodistribution Lung: 3.56 ± 0.96 % dose/organ
  Biodistribution Muscle: 18.1 ± 0.55 % dose/organ
  Biodistribution Skin: 11.3 ± 0.78 % dose/organ
  Biodistribution Spleen: 0.84 ± 0.05 % dose/organ
  Biodistribution Thyroid: 0.15 ± 0.04 % dose/organ
[1]; 60 min
  Biodistribution Blood: 3.89 ± 0.28 % dose/organ
  Biodistribution Brain: 1.74 ± 0.08 % dose/organ
  Biodistribution Heart: 0.20 ± 0.01 % dose/organ
  Biodistribution Kidney: 1.67 ± 0.21 % dose/organ
  Biodistribution Liver: 5.79 ± 0.70 % dose/organ
  Biodistribution Lung: 1.79 ± 0.06 % dose/organ
  Biodistribution Muscle: 12.9 ± 0.84 % dose/organ
  Biodistribution Skin: 13.9 ± 1.00 % dose/organ
  Biodistribution Spleen: 0.47 ± 0.02 % dose/organ
  Biodistribution Thyroid: 0.41 ± 0.11 % dose/organ
[1]; 120 min
  Biodistribution Blood: 3.15 ± 0.44 % dose/organ
  Biodistribution Brain: 1.08 ± 0.06 % dose/organ
  Biodistribution Heart: 0.13 ± 0.01 % dose/organ
  Biodistribution Kidney: 1.24 ± 0.15 % dose/organ
  Biodistribution Liver: 4.90 ± 0.38 % dose/organ
  Biodistribution Lung: 0.88 ± 0.04 % dose/organ
  Biodistribution Muscle: 9.18 ± 0.65 % dose/organ
  Biodistribution Skin: 12.5 ± 2.14 % dose/organ
  Biodistribution Spleen: 0.27 ± 0.01 % dose/organ
  Biodistribution Thyroid: 0.96 ± 0.06 % dose/organ
[1]; 240 min
  Biodistribution Blood: 3.12 ± 0.32 % dose/organ
  Biodistribution Brain: 0.33 ± 0.02 % dose/organ
  Biodistribution Heart: 0.08 ± 0.02 % dose/organ
  Biodistribution Kidney: 0.61 ± 0.09 % dose/organ
  Biodistribution Liver: 3.52 ± 0.20 % dose/organ
  Biodistribution Lung: 0.37 ± 0.03 % dose/organ
  Biodistribution Muscle: 6.27 ± 0.06 % dose/organ
  Biodistribution Skin: 12.6 ± 0.48 % dose/organ
  Biodistribution Spleen: 0.13 ± 0.02 % dose/organ
  Biodistribution Thyroid: 2.34 ± 1.16 % dose/organ
[1]; 6 hrs
  Biodistribution Blood: 3.29 ± 0.27 % dose/organ
  Biodistribution Brain: 0.11 ± 0.01 % dose/organ
  Biodistribution Heart: 0.08 ± 0.00 % dose/organ
  Biodistribution Kidney: 0.55 ± 0.07 % dose/organ
  Biodistribution Liver: 3.59 ± 0.23 % dose/organ
  Biodistribution Lung: 0.25 ± 0.01 % dose/organ
  Biodistribution Muscle: 5.01 ± 0.42 % dose/organ
  Biodistribution Skin: 15.5 ± 1.50 % dose/organ
  Biodistribution Spleen: 0.11 ± 0.01 % dose/organ
  Biodistribution Thyroid: 2.68 ± 0.66 % dose/organ
[1]; 11 hrs
  Biodistribution Blood: 2.52 ± 0.47 % dose/organ
  Biodistribution Brain: 0.02 ± 0.00 % dose/organ
  Biodistribution Heart: 0.06 ± 0.00 % dose/organ
  Biodistribution Kidney: 0.40 ± 0.10 % dose/organ
  Biodistribution Liver: 2.64 ± 0.19 % dose/organ
  Biodistribution Lung: 0.16 ± 0.00 % dose/organ
  Biodistribution Muscle: 4.01 ± 0.85 % dose/organ
  Biodistribution Skin: 10.9 ± 4.62 % dose/organ
  Biodistribution Spleen: 0.09 ± 0.01 % dose/organ
  Biodistribution Thyroid: 5.15 ± 1.49 % dose/organ
[1]; 24 hrs
  Biodistribution Blood: 0.70 ± 0.06 % dose/organ
  Biodistribution Brain: 0.01 ± 0.00 % dose/organ
  Biodistribution Heart: 0.02 ± 0.00 % dose/organ
  Biodistribution Kidney: 0.17 ± 0.02 % dose/organ
  Biodistribution Liver: 1.83 ± 0.07 % dose/organ
  Biodistribution Lung: 0.04 ± 0.00 % dose/organ
  Biodistribution Muscle: 1.13 ± 0.13 % dose/organ
  Biodistribution Skin: 4.02 ± 0.26 % dose/organ
  Biodistribution Spleen: 0.05 ± 0.01 % dose/organ
  Biodistribution Thyroid: 4.61 ± 1.21 % dose/organ
Serotonin transporters; 60-240 min post i.v. injection
  hypothalamus uptake compared to other radioiodinated compounds: highest uptake in hypothalamus
Serotonin transporters; 2 min
  Ratio of (Region-Cerebellum)/Cerebellum, CX: 0.56 ± 0.55
  Ratio of (Region-Cerebellum)/Cerebellum, HP: 0.13 ± 0.22
  Ratio of (Region-Cerebellum)/Cerebellum, HY: 0.24 ± 0.17
  Ratio of (Region-Cerebellum)/Cerebellum, ST: 0.01 ± 0.27
  Regional brain distribution CB (cerebellum): 0.79 ± 0.21 % dose/g
  Regional brain distribution CX (cortex): 1.16 ± 0.14 % dose/g
  Regional brain distribution HP (hippocampus): 0.86 ± 0.07 % dose/g
  Regional brain distribution HY (hypothalamus): 0.96 ± 0.15 % dose/g
  Regional brain distribution ST (striatum): 0.77 ± 0.04 % dose/g
Serotonin transporters; 30 min
  Ratio of (Region-Cerebellum)/Cerebellum, CX: 0.96 ± 0.14
  Ratio of (Region-Cerebellum)/Cerebellum, HP: 0.68 ± 0.22
  Ratio of (Region-Cerebellum)/Cerebellum, HY: 1.06 ± 0.22
  Ratio of (Region-Cerebellum)/Cerebellum, ST: 0.83 ± 0.23
  Regional brain distribution CB (cerebellum): 0.64 ± 0.09 % dose/g
  Regional brain distribution CX (cortex): 1.25 ± 0.13 % dose/g
  Regional brain distribution HP (hippocampus): 1.06 ± 0.12 % dose/g
  Regional brain distribution HY (hypothalamus): 1.30 ± 0.06 % dose/g
  Regional brain distribution ST (striatum): 1.16 ± 0.10 % dose/g
Serotonin transporters; 60 min
  Ratio of (Region-Cerebellum)/Cerebellum, CX: 1.35 ± 0.07
  Ratio of (Region-Cerebellum)/Cerebellum, HP: 1.30 ± 0.05
  Ratio of (Region-Cerebellum)/Cerebellum, HY: 1.92 and 1.92 ± 0.20
  Ratio of (Region-Cerebellum)/Cerebellum, ST: 1.51 ± 0.12
  Regional brain distribution CB (cerebellum): 0.41 ± 0.03 % dose/g
  Regional brain distribution CX (cortex): 0.95 ± 0.07 % dose/g
  Regional brain distribution HP (hippocampus): 0.94 ± 0.08 % dose/g
  Regional brain distribution HY (hypothalamus): 1.18 ± 0.08 % dose/g
  Regional brain distribution ST (striatum): 1.02 ± 0.11 % dose/g
Serotonin transporters; 120 min
  Ratio of (Region-Cerebellum)/Cerebellum, CX: 1.48 ± 0.13
  Ratio of (Region-Cerebellum)/Cerebellum, HP: 2.19 ± 0.07
  Ratio of (Region-Cerebellum)/Cerebellum, HY: 3.49 and 3.49 ± 0.09
  Ratio of (Region-Cerebellum)/Cerebellum, ST: 2.53 ± 0.17
  Regional brain distribution CB (cerebellum): 0.21 ± 0.01 % dose/g
  Regional brain distribution CX (cortex): 0.51 ± 0.04 % dose/g
  Regional brain distribution HP (hippocampus): 0.65 ± 0.04 % dose/g
  Regional brain distribution HY (hypothalamus): 0.92 ± 0.06 % dose/g
  Regional brain distribution ST (striatum): 0.72 ± 0.01 % dose/g
Serotonin transporters; 240 min
  Ratio of (Region-Cerebellum)/Cerebellum, CX: 1.12 ± 0.17
  Ratio of (Region-Cerebellum)/Cerebellum, HP: 2.47 ± 0.28
  Ratio of (Region-Cerebellum)/Cerebellum, HY: 4.49 and 4.3 and 4.49 ± 0.12
  Ratio of (Region-Cerebellum)/Cerebellum, ST: 3.11 ± 0.35
  Regional brain distribution CB (cerebellum): 0.06 ± 0.00 % dose/g
  Regional brain distribution CX (cortex): 0.12 ± 0.01 % dose/g
  Regional brain distribution HP (hippocampus): 0.20 ± 0.02 % dose/g
  Regional brain distribution HY (hypothalamus): 0.32 ± 0.03 % dose/g
  Regional brain distribution ST (striatum): 0.24 ± 0.02 % dose/g
Serotonin transporters; 6 hrs
  Ratio of (Region-Cerebellum)/Cerebellum, CX: 0.58 ± 0.09
  Ratio of (Region-Cerebellum)/Cerebellum, HP: 1.21 ± 0.11
  Ratio of (Region-Cerebellum)/Cerebellum, HY: 2.64 and 2.64 ± 0.54
  Ratio of (Region-Cerebellum)/Cerebellum, ST: 1.56 ± 0.41
  Regional brain distribution CB (cerebellum): 0.027 ± 0.002 % dose/g
  Regional brain distribution CX (cortex): 0.042 ± 0.002 % dose/g
  Regional brain distribution HP (hippocampus): 0.059 ± 0.005 % dose/g
  Regional brain distribution HY (hypothalamus): 0.097 ± 0.015 % dose/g
  Regional brain distribution ST (striatum): 0.068 ± 0.005 % dose/g
Serotonin transporters; 11 hrs
  Ratio of (Region-Cerebellum)/Cerebellum, CX: 0.00 ± 0.16
  Ratio of (Region-Cerebellum)/Cerebellum, HP: 0.09 ± 0.08
  Ratio of (Region-Cerebellum)/Cerebellum, HY: 0.44 ± 0.19
  Ratio of (Region-Cerebellum)/Cerebellum, ST: 0.14 ± 0.13
  Regional brain distribution CB (cerebellum): 0.011 ± 0.0013 % dose/g
  Regional brain distribution CX (cortex): 0.010 ± 0.0010 % dose/g
  Regional brain distribution HP (hippocampus): 0.012 ± 0.0021 % dose/g
  Regional brain distribution HY (hypothalamus): 0.016 ± 0.0025 % dose/g
  Regional brain distribution ST (striatum): 0.012 ± 0.0000 % dose/g
Serotonin transporters; 24 hrs
  Ratio of (Region-Cerebellum)/Cerebellum, HY: 0.23 ± 0.15
  Regional brain distribution CB (cerebellum): 0.0049 ± 0.0009 % dose/g
  Regional brain distribution CX (cortex): 0.0040 ± 0.0007 % dose/g
  Regional brain distribution HP (hippocampus): 0.0040 ± 0.0005 % dose/g
  Regional brain distribution HY (hypothalamus): 0.0060 ± 0.0010 % dose/g
  Regional brain distribution ST (striatum): 0.0039 ± 0.0004 % dose/g
SERT binding sites
  regional distribution pattern in brain: distinctive distribution pattern in the brain, which reflected regional distribution of SERT binding sites; also recorded: excellent regional distribution pattern consistent with known SERT localization
[2]
  stability in a refrigerator: stable in a refrigerator for at least three weeks
